Reference: patent US20240270809A1, “ORAL GLP RECEPTOR AGONISTS” (priority 2020, published 2024)
Where two headings read alike, the source gives them in different places. Positions of bridges follow the written chain, without caps; N, C: chain ends. Non-standard residues stand in square brackets, D forms with d. Residues, ends and D or L forms follow the SMILES beside them. *: point of attachment. Malonyl(2,2-Me2,histaminyl) = CC(C)(C(=O)NCCc1cnc[nH]1)C(=O)*; Ala(1H-tetrazol-5-yl) = N[C@@H](Cc1nnn[nH]1)C(=O)O; αMePhe(2-F) = C[C@](N)(Cc1ccccc1F)C(=O)O; αMeL = CC(C)C[C@](C)(N)C(=O)O; Nle = CCCC[C@H](N)C(=O)O; Aib = CC(C)(N)C(=O)O

Experiments:
Type in all cases: cell-based
human GLP1 receptor = target: T1, human GLP1 receptor (Homo sapiens, UniProt P43220); test: cAMP accumulation assay, functional agonism of human GLP1 receptor; settings: HEK cells infected with human GLP1 receptor BacMam virus, HTRF cAMP; for Emax: HEK293, read-out: Human GLP-1R agonist cAMP Emax; for EC50: read-out: Human GLP-1R agonist cAMP pEC50 (converted)
T1 construct: expressed in transfected cells; host or cells: HEK cells, BacMam virus transduction
How it was run: (§1)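 HTRF cAMP read-out: HEK cells expressing GLP1 or GLP2 receptor via 24 h BacMam infection, frozen before use; agonist exposure 45 min, 37° C, HBSS + 0.5 mM IBMX; stopped with detection reagents in lysis buffer.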

mouse GLP2 receptor = target: T2, mouse GLP2 receptor (Mus musculus, UniProt Q5IXF8); test: cAMP accumulation assay, functional agonism of mouse GLP2 receptor
T2 construct: expressed in transfected cells; host or cells: HEK cells, transient transfection with GeneJuice
T2 sequence (Q5IXF8 1-512): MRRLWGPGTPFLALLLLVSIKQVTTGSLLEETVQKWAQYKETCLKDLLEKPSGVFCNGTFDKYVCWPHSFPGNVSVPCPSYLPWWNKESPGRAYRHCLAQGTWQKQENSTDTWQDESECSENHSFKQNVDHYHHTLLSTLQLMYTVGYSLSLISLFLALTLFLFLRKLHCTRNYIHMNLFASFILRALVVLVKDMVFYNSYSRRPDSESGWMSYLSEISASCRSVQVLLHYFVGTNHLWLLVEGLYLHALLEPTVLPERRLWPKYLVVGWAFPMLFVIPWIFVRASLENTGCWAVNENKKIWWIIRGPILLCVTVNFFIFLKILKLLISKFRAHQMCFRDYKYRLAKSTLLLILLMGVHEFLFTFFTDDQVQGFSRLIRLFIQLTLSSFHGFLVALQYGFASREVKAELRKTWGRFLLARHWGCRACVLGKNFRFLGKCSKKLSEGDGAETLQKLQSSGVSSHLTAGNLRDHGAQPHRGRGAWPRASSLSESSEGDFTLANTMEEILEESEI
Method: CAMP production upon agonist stimulation of mouse GLP2 or GLP1 receptors was assessed utilizing HiRange cAMP kit (Cisbio). In brief, HEK cells were transiently transfected for 24 hours with cDNA using GeneJuice Transfection reagent (EMD Millipore) and frozen at −80° C. for later use in the assay. On the day, various concentrations of compounds were dispensed using ECHO-555 (LabCyte) to a total volume of 100 nl into a low volume 384-well Proxi plate (Perkin Elmer) followed by addition of 10 μl of cell suspension delivering 8000 cells per well. Cells were prepared in the assay buffer (HBSS (Lonza) supplemented with 0.5 mM IBMX (Tocris)). After 45 min incubation at 37° C., the reaction was stopped by addition of the HTRF detection reagents in the lysis buffer provided in the kit. Following 1-hour incubation at RT, plates were read on Pherastar FS (BMG Labtech, Inc.) using standard HTRF settings. Dotmatics Studies software was used for calculation of pEC50 values by fitting data to a four-parameter concentration response curve.

human GLP2 receptor = target: T3, human GLP2 receptor (Homo sapiens, UniProt O95838); test: cAMP accumulation assay, functional agonism of human GLP2 receptor; settings: HEK cells infected with human GLP2 receptor BacMam virus, HTRF cAMP; for Emax: HEK293, read-out: Human GLP-2R agonist cAMP Emax; for EC50: read-out: Human GLP-2R agonist cAMP pEC50 (converted)
T3 construct: expressed in transfected cells; host or cells: HEK cells, BacMam virus transduction
T3 sequence (O95838 1-553): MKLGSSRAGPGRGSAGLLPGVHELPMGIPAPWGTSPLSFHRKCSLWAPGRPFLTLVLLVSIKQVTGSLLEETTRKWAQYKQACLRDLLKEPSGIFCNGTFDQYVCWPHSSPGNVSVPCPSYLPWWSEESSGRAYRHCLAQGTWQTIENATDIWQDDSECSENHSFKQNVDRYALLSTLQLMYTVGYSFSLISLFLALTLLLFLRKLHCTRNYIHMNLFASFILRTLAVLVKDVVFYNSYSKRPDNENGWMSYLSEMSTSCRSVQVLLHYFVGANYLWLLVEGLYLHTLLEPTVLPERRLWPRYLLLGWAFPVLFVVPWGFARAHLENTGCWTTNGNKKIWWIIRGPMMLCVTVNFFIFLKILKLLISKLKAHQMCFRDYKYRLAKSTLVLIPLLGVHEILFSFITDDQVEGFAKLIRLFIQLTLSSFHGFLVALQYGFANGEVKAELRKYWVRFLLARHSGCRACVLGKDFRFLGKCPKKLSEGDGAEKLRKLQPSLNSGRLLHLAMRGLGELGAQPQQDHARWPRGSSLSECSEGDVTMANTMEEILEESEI
How it was run: as §1

[1] = HEK293, HEK cells transiently transfected with mouse GLP2 receptor, HTRF cAMP, read-out: Mouse GLP-2R agonist cAMP Emax
[2] = HEK cells transiently transfected with mouse GLP2 receptor, HTRF cAMP, read-out: Mouse GLP-2R agonist cAMP pEC50 (converted)

T1 sequence (P43220 24-463): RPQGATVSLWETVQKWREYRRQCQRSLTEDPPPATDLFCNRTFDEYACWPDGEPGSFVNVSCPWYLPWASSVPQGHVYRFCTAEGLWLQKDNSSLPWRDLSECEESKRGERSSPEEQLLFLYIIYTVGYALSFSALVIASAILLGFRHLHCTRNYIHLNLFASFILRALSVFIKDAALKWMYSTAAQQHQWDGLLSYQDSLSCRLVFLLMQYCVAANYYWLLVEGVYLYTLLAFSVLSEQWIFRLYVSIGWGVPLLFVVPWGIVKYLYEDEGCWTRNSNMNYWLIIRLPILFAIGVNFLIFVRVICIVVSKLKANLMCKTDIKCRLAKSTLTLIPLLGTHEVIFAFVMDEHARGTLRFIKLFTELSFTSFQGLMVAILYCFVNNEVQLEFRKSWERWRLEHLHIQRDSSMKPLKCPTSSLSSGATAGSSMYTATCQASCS

SMILES	Emax (human GLP1 receptor) [%]	EC50 (human GLP1 receptor) [nM]	Emax (mouse GLP2 receptor; [1]) [%]	EC50 (mouse GLP2 receptor; [2]) [nM]	Emax (human GLP2 receptor) [%]	EC50 (human GLP2 receptor) [nM]	EC50 (mouse GLP2 receptor) [nM]	Emax (mouse GLP2 receptor; HEK293, read-out: Mouse GLP-2R agonist cAMP Emax) [%]
CCCC[C@@H]1NC(=O)[C@H](CCC(=O)O)NC(=O)[C@H](CC(=O)O)NC(=O)[C@@H](NC(=O)[C@H](Cc2ccccc2)NC(=O)[C@H](CO)NC(=O)CNC(=O)[C@H](CC(=O)O)NC(=O)C(C)(C)NC(=O)[C@@H](N)Cc2c[nH]cn2)CCC(=O)NCCCC[C@@H](C(=O)N[C@H]2CCC(=O)NCCCC[C@@H](C(=O)N[C@H]3CCCCNC(=O)C[C@@H](C(=O)N[C@@H](Cc4ccccc4)C(=O)N[C@H](C(=O)N[C@H]4CCC(=O)NCCCC[C@@H](C(=O)N[C@H]5CCCCNC(=O)CC[C@@H](C(N)=O)NC(=O)[C@H]([C@@H](C)O)NC(=O)[C@H]([C@@H](C)CC)NC(=O)[C@H](CCCCN)NC5=O)NC(=O)[C@H]([C@@H](C)CC)NC(=O)[C@H](CC(C)C)NC(=O)[C@H](Cc5c[nH]c6ccccc56)NC4=O)[C@@H](C)CC)NC(=O)[C@H](CCCCN)NC(=O)[C@H](C)NC(=O)[C@H](C)NC3=O)NC(=O)[C@H](CC(=O)O)NC(=O)[C@H](CC(C)C)NC(=O)[C@H]([C@@H](C)CC)NC2=O)NC1=O [Example 77] (H-H[Aib]DGSFEDE[Nle]KEILDKKAAKDFIEWLIKKKITE-NH2; lactam 7-11, 12-16, 17-21, 24-28, 29-33; N-terminus and C-terminus assumed)	97.1	0.501	102	3.16	102	0.0631	–	–
CCCC[C@H](NC(=O)[C@H](CCC(=O)O)NC(=O)[C@H](CC(=O)O)NC(=O)[C@H](CO)NC(=O)[C@](C)(Cc1ccccc1F)NC(=O)[C@H](CO)NC(=O)CNC(=O)[C@H](Cc1nn[nH]n1)NC(=O)C(C)(C)C(=O)NCCc1c[nH]cn1)C(=O)N[C@H](Cc1ccccc1)C(=O)N[C@H]1CCC(=O)NCCCC[C@@H](C(=O)N[C@H]2CCC(=O)NCCCC[C@@H](C(=O)N[C@@H](CC(=O)O)C(=O)N[C@@H](Cc3ccccc3)C(=O)N[C@H](C(=O)N[C@H]3CCC(=O)NCCCC[C@@H](C(=O)N[C@H]4CCCCNC(=O)CC[C@@H](C(N)=O)NC(=O)[C@H]([C@@H](C)O)NC(=O)[C@H]([C@@H](C)CC)NC(=O)[C@H](CCCCN)NC4=O)NC(=O)[C@H]([C@@H](C)CC)NC(=O)[C@H](CC(C)C)NC(=O)[C@H](Cc4c[nH]c5ccccc45)NC3=O)[C@@H](C)CC)NC(=O)[C@H](C)NC(=O)[C@H](C)NC2=O)NC(=O)[C@H](CC(=O)O)NC(=O)[C@H](CC(C)C)NC(=O)[C@H]([C@@H](C)CC)NC1=O [Example 52]	98.8	0.00251	–	–	102	0.01	0.2	103
CCCC[C@@H]1NC(=O)[C@H](CCC(=O)O)NC(=O)[C@@H](NC(=O)[C@H](CO)NC(=O)[C@](C)(Cc2ccccc2F)NC(=O)[C@H](CO)NC(=O)[C@@H](C)NC(=O)[C@H](Cc2nn[nH]n2)NC(=O)C(C)(C)C(=O)NCCc2c[nH]cn2)CCCCNC(=O)C[C@@H](C(=O)N[C@@](C)(CC(C)C)C(=O)N[C@@H](CC(C)C)C(=O)N[C@@H](CC(=O)O)C(=O)N[C@H]2CCC(=O)NCCCC[C@@H](C(=O)N[C@@H](CC(=O)O)C(=O)N[C@@H](Cc3ccccc3)C(=O)N[C@H](C(=O)N[C@H]3CCCCNC(=O)C[C@@H](C(=O)N[C@H]4CCC(=O)NCCCC[C@@H](C(N)=O)NC(=O)[C@H]([C@@H](C)O)NC(=O)[C@H]([C@@H](C)CC)NC(=O)[C@H](CCCCN)NC4=O)NC(=O)[C@H]([C@@H](C)CC)NC(=O)[C@H](CC(C)C)NC(=O)[C@H](Cc4c[nH]c5ccccc45)NC3=O)[C@@H](C)CC)NC(=O)[C@H](C)NC(=O)[C@H](C)NC(=O)[C@H](CCCCN)NC2=O)NC(=O)[C@@H](Cc2ccccc2)NC1=O [Example 56] ({Malonyl(2,2-Me2,histaminyl)}-[Ala(1H-tetrazol-5-yl)][dA]S[αMePhe(2-F)]SKE[Nle][dF]D[αMeL]LDEKAAKDFIKWLIDEKITK-NH2; lactam 6-10, 14-18, 22-26, 27-31 (inferred); C-terminus assumed)	97.3	0.0631	98.6	0.631	103	0.0126	–	–
CCCC[C@H](NC(=O)[C@H](CCC(=O)O)NC(=O)[C@@H]1CCCCNC(=O)CC[C@H](NC(=O)[C@H](Cc2nn[nH]n2)NC(=O)C(C)(C)C(=O)NCCc2c[nH]cn2)C(=O)N[C@@H](CO)C(=O)N[C@@H](Cc2ccccc2)C(=O)N[C@@H](CO)C(=O)N1)C(=O)N[C@H](Cc1ccccc1)C(=O)N[C@H]1CCC(=O)NCCCC[C@@H](C(=O)N[C@H]2CCC(=O)NCCCC[C@@H](C(=O)N[C@@H](CC(=O)O)C(=O)N[C@@H](Cc3ccccc3)C(=O)N[C@H](C(=O)N[C@H]3CCC(=O)NCCCC[C@@H](C(=O)N[C@H]4CCCCNC(=O)CC[C@@H](C(N)=O)NC(=O)[C@H]([C@@H](C)O)NC(=O)[C@H]([C@@H](C)CC)NC(=O)[C@H](CCCCN)NC4=O)NC(=O)[C@H]([C@@H](C)CC)NC(=O)[C@H](CC(C)C)NC(=O)[C@H](Cc4c[nH]c5ccccc45)NC3=O)[C@@H](C)CC)NC(=O)[C@H](C)NC(=O)[C@H](C)NC2=O)NC(=O)[C@H](CC(=O)O)NC(=O)[C@H](CC(C)C)NC(=O)[C@H]([C@@H](C)CC)NC1=O [Example 78]	95.5	0.251	83.1	2	103	0.0251	–	–
CCCC[C@H](NC(=O)[C@H](CCC(=O)O)NC(=O)[C@H](CC(=O)O)NC(=O)[C@H](CO)NC(=O)[C@H](Cc1ccccc1)NC(=O)[C@H](CO)NC(=O)CNC(=O)[C@H](CC(=O)O)NC(=O)C(C)(C)NC(=O)[C@@H](N)Cc1c[nH]cn1)C(=O)N[C@H](Cc1ccccc1)C(=O)N[C@H](C(=O)N[C@H](C(=O)N[C@@H](CC(C)C)C(=O)N[C@@H](CC(=O)O)C(=O)N[C@H]1CCCCNC(=O)CC[C@@H](C(=O)N[C@@H](CC(=O)O)C(=O)N[C@@H](Cc2ccccc2)C(=O)N[C@H](C(=O)N[C@@H](CC(N)=O)C(=O)N[C@@H](Cc2c[nH]c3ccccc23)C(=O)N[C@@H](CC(C)C)C(=O)N[C@H](C(=O)N[C@@H](CCC(N)=O)C(=O)N[C@H](C(=O)N[C@@H](CCCCN)C(=O)N[C@H](C(=O)N[C@H](C(=O)N[C@@H](CC(=O)O)C(N)=O)[C@@H](C)O)[C@@H](C)CC)[C@@H](C)O)[C@@H](C)CC)[C@@H](C)CC)NC(=O)[C@H](C)NC(=O)[C@H](C)NC(=O)[C@H](CCCCN)NC1=O)[C@@H](C)CC)[C@@H](C)O [Example 102] (H-H[Aib]DGSFSDE[Nle][dF]TILDKKAAEDFINWLIQTKITD-NH2; lactam 16-20; N-terminus and C-terminus assumed)	99.3	20	99	0.02	101	0.00126	–	–
